From patent US10479805B2, “Beta-lactamase inhibitor” (priority 2016, dated 2019)
Values after ≈ are worked out from the molar mass of the structure shown.

Columns and labels:
Experiment in all cases: Broth microdilution MIC, cephalosporin alone
Type in all cases: cell-based
[1] = system: E. coli expressing class A ESBLCTXM15; settings: Escherichia coli
Description: (§1) To determine that ability of the test compound to inhibit the growth of beta-lactamase-producing bacterial strain, traditional cell-based screening experiments were employed. Six bacterial strains producing beta-lactamases were used: Escherichia coli expressing class an extended spectrum beta-lactamases (esbl) ctxm15 and shv5 (E. coli), Klebsiella pneumoniae expressing class a carbapenem enzyme kpc2, Pseudomonas aeruginosa expressing class B VIM-2, Enterobacter cloacae expressing class C P99+, and Acinetobacter baumannii expressing class D OXA-23 were studied. […] This experiment was performed in Cation Adjusted Mueller Hinton Broth (CAMHB, BD #212322, BD Diagnostic Systems, Sparks, Md.). The bacterial strains were grown in CAMBH broth for […]. All six strains were grown in the presence of 50 μg/mL ampicillin to ensure that resistance was maintained. At the same time, the test compound was diluted into 0.1 mg/mL stock solution in DMSO. The compound was added to the microplate and diluted in a 2-fold series in CAMHB to a final concentration of 32 to 0.25 μg/mL. A cover layer containing cephalosporin CAMHB was added to the compound at a termination concentration of 8 μg/mL or […]. […] The MIC reading of the dose escalation test of the test compound indicates the concentration of the analyte sufficient to inhibit beta-lactamase activity and protect the original antibacterial activity of cephalosporins. Six plates are required for each compound and each plate is used for one bacterial strain. In addition to the dose escalation test of the test compound, the MIC of a group of cephalosporins was tested to ensure that the strain remained consistent in behavior between the test and the test. Once the test compound and cephalosporin are added, the plates may be inoculated. The inoculation was carried out according to the CLSI broth microdilution method.

[2] = system: Pseudomonas aeruginosa expressing class B enzyme VIM-2
Description: as §1

[3] = system: Klebsiella pneumoniae expressing carbapenem class A KPC2; settings: antibiotic alone, K. pneumoniae KPC2, CAMHB
Description: as §1

[4] = system: Escherichia coli expressing class A ESBL SHV5; settings: read-out: MIC alone
Description: as §1

[5] = system: Enterobacter cloacae expressing class C P99+AmpC
Description: as §1

[6] = system: Acinetobacter baumannii expressing class D enzyme OXA-23
Description: as §1

Compound: CO/N=C(\C(=O)N[C@@H]1C(=O)N2C(C(=O)O)=C(COC(C)=O)CS[C@H]12)c1csc(N)n1 [cefotaxime]
- MIC [1]: 1020 µg/mL (≈ 2250 µM)

Compound: CC(C)(O/N=C(\C(=O)N[C@@H]1C(=O)N2C(C(=O)[O-])=C(C[n+]3ccccc3)CS[C@H]12)c1csc(N)n1)C(=O)O [Ceftazidime]
- MIC [2]: > 256 µg/mL
- MIC [3]: 32 µg/mL (≈ 58.5 µM)
- MIC [4]: > 1020 µg/mL
- MIC [5]: 256 µg/mL (≈ 468 µM)
- MIC [6]: > 256 µg/mL
